# Measured values from patent US9757372B2, “Toll-like receptor 4 antagonists and use in autoimmune liver diseases” (TAIWANJ PHARMACEUTICALS CO., LTD., priority 2015, dated 2017).
# Columns and labels:
# [1] = test system: liver NK cells, NKT cells and mononuclear cells; test: Murine model of primary biliary cirrhosis (2-OA-BSA and α-GalCer immunized C57BL/6 mice); format: in vivo, mouse; conditions: 50 mg/kg bid oral; for effect on elevated liver NK cells: week 4 through week 10 (FIG. 3); for effect on elevated liver NKT cells: week 4 through week 10 (FIG. 4); for effect on elevated liver mononuclear cells: week 4 through week 10 (not shown)
# Excerpt: C57BL/6 mice of 8-10 weeks old were immunized with 2-OA-BSA and α-GalCer at week 0, followed by booster injections at 2, 4, and 8. […] Each value represents individual animals. Some animals were lost due to lunging.
# Con A-induced hepatitis = test: Concanavalin A hepatitis in mouse (murine model of AIH); format: in vivo
# TLR4 [2] = biological target: T1, TLR4 (Homo sapiens, UniProt O00206+Q9Y6Y9); test: Inhibition of TLR4 activation: NF-κB-inducible SEAP reporter, antagonist assay with LPS; format: cell-based; design: expressed in transfected cells; host or cells: HEK293
# Experimental: The secreted alkaline phosphatase reporter is under the control of a promoter inducible by the transcription factor NF-κB. TLR stimulation in the screening is tested by assessing NF-κB activation in the HEK293 cells expressing a given TLR. This reporter gene allows the monitoring of signaling through the TLR, based on the activation of NF-κB. In a 96-well plate (200μL total volume) containing the appropriate cells (25,000-50,000 cells/well), we add 20μL of your sample or the positive control ligands to the wells. For the antagonist assay, the samples are incubated with the cells for 30 minutes prior to adding the appropriate stimulating ligand. The media we add to the wells is designed for the detection of NF-κB induced SEAP expression. After a 16-20 hr incubation we read the OD at 650 nm on a Beckman Coulter AD 340C Absorbance Detector.
# Target sequence in this assay (O00206 24-839): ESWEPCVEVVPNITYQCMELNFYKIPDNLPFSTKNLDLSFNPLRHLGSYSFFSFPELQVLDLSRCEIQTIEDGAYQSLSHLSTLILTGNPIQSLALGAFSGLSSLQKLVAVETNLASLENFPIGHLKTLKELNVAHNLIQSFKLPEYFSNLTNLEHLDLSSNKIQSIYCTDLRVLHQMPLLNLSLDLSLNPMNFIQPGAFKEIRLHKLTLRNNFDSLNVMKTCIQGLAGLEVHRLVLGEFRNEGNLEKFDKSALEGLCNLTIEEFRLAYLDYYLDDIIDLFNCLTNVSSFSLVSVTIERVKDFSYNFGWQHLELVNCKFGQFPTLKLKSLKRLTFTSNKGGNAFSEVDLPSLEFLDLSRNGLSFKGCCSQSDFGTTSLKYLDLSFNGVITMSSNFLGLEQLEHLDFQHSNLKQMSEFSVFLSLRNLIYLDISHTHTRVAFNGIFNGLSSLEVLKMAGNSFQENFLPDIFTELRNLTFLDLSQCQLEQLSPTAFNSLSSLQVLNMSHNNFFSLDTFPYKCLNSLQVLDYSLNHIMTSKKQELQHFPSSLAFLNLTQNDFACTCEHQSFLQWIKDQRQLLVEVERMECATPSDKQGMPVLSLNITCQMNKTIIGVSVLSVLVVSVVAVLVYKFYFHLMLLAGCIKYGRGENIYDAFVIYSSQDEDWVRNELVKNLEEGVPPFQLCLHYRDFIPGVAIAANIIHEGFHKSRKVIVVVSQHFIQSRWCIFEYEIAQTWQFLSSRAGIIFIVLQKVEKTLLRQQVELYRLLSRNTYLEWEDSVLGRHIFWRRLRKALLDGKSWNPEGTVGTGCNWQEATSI
# Target sequence in this assay (Q9Y6Y9 17-160 limits assumed): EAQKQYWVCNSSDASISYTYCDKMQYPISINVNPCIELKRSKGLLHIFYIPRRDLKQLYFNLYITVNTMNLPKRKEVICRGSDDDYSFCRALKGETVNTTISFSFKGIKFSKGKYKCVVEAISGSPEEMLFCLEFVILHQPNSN
# TLR4 [3] = biological target: T1, TLR4; conditions: Hutchinson et al., Eur J Neurosci. 28:20-29, 2008; cited from earlier work
# Target sequence in this assay (O00206 24-839, species assumed): as the sequence (O00206 24-839) above
# Target sequence in this assay (Q9Y6Y9 17-160 limits assumed, species assumed): as the sequence (Q9Y6Y9 17-160 limits assumed) above
# [4] = 50 mg/kg PO, result in words (FIG. 2)
# [5] = 20 mg/kg, 9 hours post Con A challenge, P<0.05 vs vehicle
SMILES,effect on elevated liver NK cells [1],effect on elevated liver NKT cells [1],effect on elevated liver mononuclear cells [1],inhibition of Con A-induced elevation of ALT (Con A-induced hepatitis; [4]),inhibition of Con A-induced elevation of AST (Con A-induced hepatitis; [4]),"reduction of IL-5 in the serum (Con A-induced hepatitis; 50 mg/kg, 6 hours post Con A challenge)","reduction of IL-5 in the liver (Con A-induced hepatitis; 50 mg/kg, 24 hours post Con A challenge)","% of Inhibition of NF-κB (TLR4 [2]; HEK293 cells expressing TLR4, LPS 50 pg/mL, compound 10 μM)",inhibition of LPS-induced TLR4 activation (TLR4 [2]; at various concentrations),reduction of IL-5 in the liver (Con A-induced hepatitis; [5]),reduction of IL-6 in the liver (Con A-induced hepatitis; [5]),reported TLR4 antagonist (TLR4 [3])
"COc1ccc2c(c1)[C@@]13CCCC[C@H]1[C@@H](C2)NCC3 [Compound C, 3-methoxymorphinan]",suppressed,suppressed,suppressed,–,–,–,–,–,–,–,–,–
"C=C1CC[C@@]2(O)[C@H]3Cc4ccc(O)c5c4[C@@]2(CCN3CC2CC2)[C@H]1O5 [Compound B, nalmefene]",suppressed,suppressed,suppressed,significant (P<0.05) inhibition,significant (P<0.05) inhibition,64%,16%,21%,weak inhibition,–,–,–
"Oc1ccc2c(c1)[C@@]13CCCC[C@H]1[C@@H](C2)NCC3 [Compound D, 3-hydroxymorphinan]",suppressed,suppressed,suppressed,–,–,–,–,–,–,–,–,–
"O=C1CC[C@@]2(O)[C@H]3Cc4ccc(O)c5c4[C@@]2(CCN3CC2CC2)[C@H]1O5 [Compound A, naltrexone]",suppressed,suppressed,suppressed,–,–,–,–,–,–,21%,32%,TLR4 antagonist
